Measurements reported in patent US11835532B2, “Green concentrated reagent for hemotology systems” (priority 2018, dated 2023).

Assay: Response of test reagent pools to osmolality, conductivity and pH adjusters
Format: physicochemical
Protocol: Assays were performed to characterize the response of the test reagents according to Table 2 to adjustments targeting changes to the pH, osmolality and conductivity of the reagent test pools.
Each of the test pools were adjusted for osmolality and conductivity with different chemicals, for example, sodium chloride, sodium sulfate, potassium sulfate, potassium bisulfate, imidazole and sodium phosphate monobasic. Adjusting for osmolality or conductivity parameters impacts all three parameters of pH, conductivity and osmolality.
Variation of pH, conductivity and osmolality was observed by adding increasing amounts of each adjuster to a test reagent pool. Amounts of each adjuster to achieve target midpoint were established. The target pH, osmolality and conductivity were pH 7.02-7.20, target osmolality 315-360 mOsm/Kg, and target conductivity 19.05-20.00 mS/cm.
All pH, conductivity and osmolality adjusters functioned as expected with no precipitation.

[1] = pH adjuster added to working concentration reagent
[2] = osmolality and conductivity adjuster added to working concentration reagent

Cl [6N Hydrochloric Acid]
Osmolality change per gram of adjuster [1]: +7.0 mOsm/kg/gm | ▴ Conductivity [1]: +0.33 mS/cm/gm | ▴ pH/gm [1]: −0.16

[Na+].[OH-] [50% Sodium Hydroxide]
Osmolality change per gram of adjuster [1]: +13.7 mOsm/kg/gm | ▴ Conductivity [1]: +0.38 mS/cm/gm | ▴ pH/gm [1]: +0.39

c1c[nH]cn1 [Imidazole]
Osmolality change per gram of adjuster [1]: +24.9 mOsm/kg/gm | ▴ Conductivity [1]: +0.28 mS/cm/gm | ▴ pH/gm [1]: +0.21

O=S(=O)([O-])[O-].[K+].[K+] [Potassium Sulfate]
▴ Conductivity [2]: +1.07 mS/cm/gm | ▴ Osmolality [2]: +11.9 mOsm/kg/gm | ▴ pH/gm [2]: +0.02

[Cl-].[Na+] [Sodium Chloride]
▴ Conductivity [2]: +1.61 mS/cm/gm | ▴ Osmolality [2]: +29.2 mOsm/kg/gm | ▴ pH/gm [2]: 0.00

O=P([O-])(O)O.[Na+] [Sodium Phosphate Mono]
Osmolality change per gram of adjuster [1]: +12.0 mOsm/kg/gm | ▴ Conductivity [1]: +0.46 mS/cm/gm | ▴ pH/gm [1]: −0.14

O=S(=O)([O-])[O-].[Na+].[Na+] [Sodium Sulfate]
▴ Conductivity [2]: +0.88 mS/cm/gm | ▴ Osmolality [2]: +14.1 mOsm/kg/gm | ▴ pH/gm [2]: +0.01
